Data published in patent US8673968B2, “Progesterone antagonists” (Evestra, Inc., priority 2009, dated 2014).

Tests used:
[1] = target: T1, glucocorticoid receptor-LBD (Homo sapiens, UniProt P04150); assay: Glucocorticoid Antagonist Screen activated by control agonist Dexamethasone (GENEBLAZER beta-lactamase reporter); format: cell-based; conditions: glucocorticoid receptor-LBD-UAS-bla HEK 293T cells, read-out: Glucocorticoid Antagonist Inhibition IC50
T1 construct: host or cells: HEK 293T (glucocorticoid receptor-LBD-UAS-bla)
T1 sequence (P04150 524-758 limits assumed): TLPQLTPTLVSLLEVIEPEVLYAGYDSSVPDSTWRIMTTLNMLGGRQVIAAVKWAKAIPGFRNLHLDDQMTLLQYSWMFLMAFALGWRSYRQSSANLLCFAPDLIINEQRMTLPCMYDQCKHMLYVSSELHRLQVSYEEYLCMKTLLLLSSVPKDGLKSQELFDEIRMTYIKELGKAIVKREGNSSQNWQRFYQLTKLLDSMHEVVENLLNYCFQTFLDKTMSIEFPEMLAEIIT
Procedure: (§1) Determination of the agonist/antagonist nature of the test compounds was carried out using Invitrogen's SELECTSCREEN, a cell-based nuclear receptor profiling service which uses GENEBLAZER a beta-lactamase reporter technology. This assay uses a Beta-lactamase cDNA under transcriptional control of an Upstream Activator Sequence (UAS). The UAS is activated by the GAL4 transcription factor DNA binding domain (DBD), which is expressed as a fusion protein with the target receptor ligand binding domain (LBD). Upon ligand binding, the GAL4(DBD)-NR(LDB) binds to the UAS, which controls transcription of Beta-lactamase. Beta-lactamase cleaves a special engineered fluorescent substrate which results in a change in the measured fluorescence wavelength.

[2] = target: T2, progesterone receptor-LBD (Homo sapiens, UniProt P06401); assay: Progesterone Agonist screen (SELECTSCREEN GENEBLAZER beta-lactamase reporter); format: cell-based; conditions: progesterone receptor-LBD-UAS-bla HEK 293T cells; read-out: Progesterone Agonist Activation IC50
T2 construct: host or cells: HEK 293T (progesterone receptor-LBD-UAS-bla)
T2 sequence (P06401 679-913 limits assumed): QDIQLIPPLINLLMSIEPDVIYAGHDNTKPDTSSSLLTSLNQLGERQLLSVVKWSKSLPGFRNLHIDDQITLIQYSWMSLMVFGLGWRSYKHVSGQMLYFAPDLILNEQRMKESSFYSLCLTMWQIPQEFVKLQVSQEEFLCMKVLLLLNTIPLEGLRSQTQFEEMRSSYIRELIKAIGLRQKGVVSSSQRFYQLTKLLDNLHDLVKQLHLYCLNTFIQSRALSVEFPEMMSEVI
Procedure: as §1
The plate is incubated for 16-24 hours at 37° C./5% CO2 in a humidified incubator. […] The plate is then read on a fluorescence plate reader (Tecan Safire).

[3] = target: T2, progesterone receptor-LBD; assay: Progesterone Antagonist Screen, activated by control agonist R5020 (GENEBLAZER beta-lactamase reporter); format: cell-based; conditions: progesterone receptor-LBD-UAS-bla HEK 293T cells; control agonist R5020 at EC80; read-out: Progesterone Antagonist Inhibition IC50
Procedure: as §1
The generalized protocol used for the Progesterone Antagonist Screen, activated by control Agonist R5020 is as follows:
32 μL of cell suspension is added to the wells which is then pre-incubated at 37 C/5% CO2 in a humidified incubator with test compounds and control antagonist titration for 30 minutes. 4 μL of a 10× control agonist (see above) at the predetermined EC80 concentration is added to wells containing the control antagonist or test compounds. The plate is incubated for 16-24 hours at 37 C/5% CO2 in a humidified incubator. 8 μl of 1 μM Substrate Loading Solution is added to each well and the plate is incubated for 2 hours at room temperature. The plate is then read on a fluorescence plate reader (Tecan Safire).

[4] = tested on: progesterone receptor positive breast cancer; conditions: rat model, recent study; cited from earlier work

SMILES | IC50 [3] | also measured
CC(=O)c1ccc(C2CC3(C)C(CCC34OCCC4=C(F)F)C3CCC4=CC(=O)CCC4=C23)cc1 (stereo not drawn) [Compound 1a, 21,21-difluoro-11β-(4′-acetyl)phenyl-17,23-epoxy-19,24-dinor-17α-chola-4,9,20-triene] | 0.265 nM | IC50 [1]: > 10 nM; IC50 [2]: > 10 nM
CN(C)c1ccc(C2CC3(C)C(CCC34OCCC4=C(F)F)C3CCC4=CC(=O)CCC4=C23)cc1 (stereo not drawn) [Compound 1b, 21,21-difluoro-11β-[4′-(dimethylamino)phenyl]-17,23-epoxy-19,24-dinor-17α-chola-4,9,20-triene] | 0.178 nM | –
COc1ccc(C2CC3(C)C(CCC34OCCC4=C(F)F)C3CCC4=CC(=O)CCC4=C23)cc1 (stereo not drawn) [Compound 1c, 21,21-difluoro-11β-(4′-methoxyphenyl)-17,23-epoxy-19,24-dinor-17α-chola-4,9,20-triene] | 0.344 nM | –
C=C(C)c1ccc(C2CC3(C)C(CCC34OCCC4=C(F)F)C3CCC4=CC(=O)CCC4=C23)cc1 (stereo not drawn) [Compound 1d, 21,21-difluoro-11β-(4′-isopropenylphenyl)-17,23-epoxy-19,24-dinor-17α-chola-4,9,20-triene] | 0.413 nM | –
CC12CC(c3ccc(-c4cccnc4)cc3)C3=C4CCC(=O)C=C4CCC3C1CCC21OCCC1=C(F)F (stereo not drawn) [Compound 1e, 21,21-difluoro-11β-[4′-(3′-pyridyl)phenyl]-17,23-epoxy-19,24-dinor-17α-chola-4,9,20-triene] | 0.28 nM | –
CC12CC(c3ccc(-c4ccoc4)cc3)C3=C4CCC(=O)C=C4CCC3C1CCC21OCCC1=C(F)F (stereo not shown) [Compound 1f] | 0.864 nM | –
COCC(=O)[C@@]1(OC(C)=O)CC[C@H]2[C@@H]3CCC4=CC(=O)CCC4=C3[C@@H](c3ccc(N(C)C)cc3)C[C@@]21C [PROELLEX] | – | development of new tumors [4]: decrease in the development of new tumors; tumor size [4]: regression of tumor size
CC(=O)c1ccc([C@H]2C[C@@]3(C)[C@@H](CC[C@@]3(O)C(F)(F)C(F)(F)F)[C@@H]3CCC4=CC(=O)CCC4=C32)cc1 [ZK 230211, Lonaprisan, reference compound] | 0.798 nM | IC50 [1]: > 10 nM; IC50 [2]: > 10 nM
